Experimental data from article PMC6934184, “Selective DNA-PKcs inhibition extends the therapeutic index of localized radiotherapy and chemotherapy” (The Journal of Clinical Investigation, 2019).

Biological target: T1, FGFR1 (Homo sapiens, UniProt P11362)
T1 construct: purchased Thermo Fisher Scientific (Life Technologies) SelectScreen
Experiment: SelectScreen Z'LYTE
Type: biochemical
Outline: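 SelectScreen broad panel; activity (Z'LYTE, Adapta) plus binding formats. ATP: Km app for CSF1R Z'LYTE; 10 for CAMK1 Adapta. Readout = % per kinase.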

T1 sequence (P11362 22-822): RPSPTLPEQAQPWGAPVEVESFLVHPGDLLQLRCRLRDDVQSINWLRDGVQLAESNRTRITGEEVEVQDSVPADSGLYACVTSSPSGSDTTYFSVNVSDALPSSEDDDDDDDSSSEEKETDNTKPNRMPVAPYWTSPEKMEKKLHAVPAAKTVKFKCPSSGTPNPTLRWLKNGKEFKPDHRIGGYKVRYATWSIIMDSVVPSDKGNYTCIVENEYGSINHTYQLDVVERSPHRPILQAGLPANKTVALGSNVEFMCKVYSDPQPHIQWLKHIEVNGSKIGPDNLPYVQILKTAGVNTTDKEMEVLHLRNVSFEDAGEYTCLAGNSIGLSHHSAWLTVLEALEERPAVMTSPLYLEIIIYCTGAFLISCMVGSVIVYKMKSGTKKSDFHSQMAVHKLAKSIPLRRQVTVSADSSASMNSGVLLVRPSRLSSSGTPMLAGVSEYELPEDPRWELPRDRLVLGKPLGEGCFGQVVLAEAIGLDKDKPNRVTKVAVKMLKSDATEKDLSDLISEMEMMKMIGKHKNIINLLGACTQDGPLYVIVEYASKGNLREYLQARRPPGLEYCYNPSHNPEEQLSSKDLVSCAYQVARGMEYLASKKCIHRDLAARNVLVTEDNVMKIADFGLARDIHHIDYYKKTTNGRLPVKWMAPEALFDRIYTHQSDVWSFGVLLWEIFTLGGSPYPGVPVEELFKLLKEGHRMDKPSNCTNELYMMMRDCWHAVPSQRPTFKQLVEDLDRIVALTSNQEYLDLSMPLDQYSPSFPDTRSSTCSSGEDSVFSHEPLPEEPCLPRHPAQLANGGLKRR

Which inhibition at 1 µM does the source give for `CN(C(=O)CN1CCOCC1)c1ccc2sc3c(-c4cccc5c(=O)cc(N6CC7CCC(C6)O7)oc45)cccc3c2c1` [NU5455] here?
The inhibition at 1 µM was 4.7%.
